We go through 63 compounds from a melting point compilation (Tetko et al.; mined from patent text by program, amines drawn as free bases though some values may be those of a salt).

Usually melting point stands for the temperature of the solid-liquid transition. `CCCn1cc(C(=O)NCc2ccc(Cl)cc2)c(=O)c2cc(CN(C)C[C@@H](O)c3ccccc3)sc21` displayed a melting point of 45 to 48 °C. Next, `N=C(NCCOc1cccc2[nH]c3ccccc3c12)c1cccs1`: 180 to 181 °C; `CC(C)C(C)(C)NC(=S)Nc1cc(Cl)cc(Cl)c1`: 132 to 134 °C.

On to `CC#CCCCCCCCCCCCC`, for which the melting point fell in the range of 36 to 37 °C. The figure for `CNC(=O)c1cnc(-c2ccccc2)c(-c2ccc(=O)n(C(C)C)n2)c1` is 212 to 213 °C. `O=C(Oc1ccc([N+](=O)[O-])cc1)OC1CCN(C(=O)OCc2ccccc2)CC1`: the melting point was 118 to 120 °C. Next, `CC1(C)OCC(COc2ccc(Br)cc2C23CC4CC(CC(C4)C2)C3)O1` (stereo not drawn): 91 °C.

In the case of `O=C(c1ccc(-c2ccccc2)cc1)N1Cc2ccccc2Oc2ccccc21`, the melting point lay in the range of 93 to 95 °C. The figure for `Clc1ccc2[nH]c3c4ccccc4nc-3c(Cl)c2c1` is 281 to 282 °C; for `COC(=O)c1ccc(C(=O)/C=C/c2cc(-c3cc4ccccc4s3)c(OC)cc2OC)cc1` it is 149 to 151 °C. The figure for `CC(C)(C)OC(=O)N1CCC(c2nc3cc(-c4ccc(C(N)=O)c(F)c4)ccc3o2)CC1` is 202 to 206 °C; for `CN(C(=O)[C@H]1CC[C@@H](c2ccccc2)N1C(=O)OC(C)(C)C)c1ccccc1` (racemic) it is 132 °C. The figure for `CC(=O)c1c(C)[nH]c(CC(=O)O)c1C` is 195 to 205 °C; for `Cc1cccc(N2CCN(CCc3c(C)nc4ccc(Cl)cn4c3=O)CC2)c1` it is 119 to 120 °C.

`Cc1nc2c(N)nc3ccccc3c2n1CCCNS(C)(=O)=O`: the melting point lay within 236 to 238 °C. The figure for `O=C(CCc1ccccc1)Oc1n[nH]c(=O)c2nc3cc(Cl)cc(Cl)c3c(O)c12` is > 395 °C; for `CNC(=O)Oc1ccc(C2CCC(=O)N2CCN2CCOCC2)cc1` (stereo not drawn) it is 119 to 120 °C. Next, `CCOC(=CC=O)C1CCC2C3CCC4CC(O)CCC4(C)C3C(=O)CC12C` (stereo not drawn): 175 to 178 °C; `CCOC(=O)c1ccc(CN2CC[C@H](NC(=O)OC(C)(C)C)C2=O)c(C(F)(F)F)c1`: 93 to 95 °C; `O=C(CCl)OCN1C(=O)CN(CCN2CC(=O)N(COC(=O)CCl)C(=O)C2)CC1=O`: 132 to 134 °C. `NS(=O)(=O)Oc1cccc(F)c1` yielded a melting point of 53 to 55 °C. The figure for `C=CCOc1cc(F)c(C#N)c(OC(C(=O)OC)c2ccccc2C)c1` (racemic) is 100 to 102 °C. Next, `O=C(Nc1ccc(F)cc1)OCC1CSC2=C(O1)c1ccccc1C(=O)C2=O` (stereo not drawn): 235 to 237 °C; `OC(=S)c1cc(C(F)(F)F)ccc1O`: 122 to 125 °C; `COc1nc(OC)nc(OC(C(=O)OCc2ccccc2)C(C)(C)C)n1` (stereo not drawn): 63 to 66 °C.

On to `COC(=O)c1ccc(C(F)(F)F)nc1S(=O)(=O)NC(=O)Nc1nc(OC)cc(OC)n1`, for which the melting point is 130 to 137 °C. Next, `CC(C)OC(=O)Cc1nc(-c2ccc(F)cc2)oc1-c1ccsc1`: 108 to 110 °C; `C=CCOc1ccc(C[C@H](N)C(=O)NC(=O)OC(C)(C)C)cc1`: 145 °C. Next, `CC(C)(C)c1cc(-c2nc3ccc(O)cc3o2)ccc1O`: 220 to 222 °C. Next, `O=C(O)C1CN(Cc2ccc(OCc3ccc(Cl)c(Cl)c3)cc2)C1`: 166 °C.

The compound `NC(Cc1ccccc1)c1ccc(Cl)cc1` (stereo not drawn) came in with a melting point of 35 to 36 °C. Next, `C[C@@H](n1cnc2c(cnn2-c2ccc(F)cc2)c1=O)[C@](O)(Cn1cncn1)c1ccc(F)cc1F`: 217 to 218 °C; `O=c1[nH]c2cc(Cl)cc(Cl)c2c(=O)n1Cc1cccc(Br)c1`: 161 to 165 °C; `COC(=O)NC[C@H]1CN(c2cc(F)c(N3CCC(n4ncnn4)CC3)c(F)c2)C(=O)O1`: 168 to 170 °C. Next, `CCCc1nc(C)cn1-c1nc(OC)ccc1[N+](=O)[O-]`: 96 to 103 °C; `CCn1c2c(c(=O)c3cc(C(C)C)ccc31)Cc1cc(C)sc1-2`: 168 to 169 °C; `O=C1CCC(N2Cc3c(OCc4ccc(CNC5CCOCC5)cc4)cccc3C2=O)C(=O)N1` (stereo not drawn): 231 to 233 °C.

`COc1ccc2oc(-c3ccccc3)c(CC#N)c2c1`: the melting point lay in the range of 106 to 107 °C.

Compound `NS(=O)(=O)c1ccc(-c2c(-c3ccccc3)[nH]c3ccccc23)cc1` returned a melting point of 223 to 225 °C.

On to `N#CC1=C(c2cccs2)Nc2n[nH]cc2C1c1ccccc1Cl` (stereo not drawn), for which the melting point came out at 174 °C. Next, `COC(=O)C1=C(C)Nc2nc(N3CCOCC3)nc(N3CCOCC3)c2C1c1ccccc1C#N` (stereo not drawn): 221 °C; `CCc1cccc(C)c1C(=O)N[C@@H](Cc1ccc(-c2c(C(F)(F)F)cc(C)n(C)c2=O)cc1)C(=O)O`: 219 to 221 °C; `Oc1ccc2cc(COC=C3C4CC5CC(C4)CC3C5)ccc2c1`: 133 to 140 °C. The figure for `Nc1nnc(-c2ccnc3[nH]c(CCc4ccccc4)cc23)o1` is 234 to 235 °C. Next, `COc1cc(Nc2nccc(C(=O)Nc3ccccc3)n2)cc(OC)c1OC`: 158 to 159 °C; `O[C@@H]1[C@H](O)CS[C@H]1n1cnc2c(NCc3ccccc3Cl)nc(Cl)nc21`: 199 to 200 °C; `CN1CC[C@@H](c2c(O)cc(O)c3c(=O)cc(-c4cc(O)ccc4Cl)oc23)[C@@H]1CO`: 220 to 221 °C. For `O=C(O)c1ccc(-c2nc(-c3ccc(C(F)(F)F)cc3)no2)cc1`, the melting point fell in the range of 293 to 294 °C. Next, `CN1C(=O)C(c2cc[nH]c2)(c2cccc(OCc3ccccc3)c2)N=C1N` (stereo not drawn): 98 to 100 °C; `CCOC(=O)N1CCC(NC(=O)c2ccc(Cl)cc2Cl)C12CCCCC2` (stereo not drawn): 143 to 144 °C. The figure for `CNC(=O)c1c(-c2ccccc2)oc(-c2ccccc2)cc1=O` is 196 to 197 °C; for `CCOC(=O)c1cc2cc(C)c(C(F)(F)F)cc2n1[C@H](C)CNC(=O)OC(C)(C)C` it is 103 to 105 °C; for `CCN1C(=O)C(C)(C)C(=O)N(C)c2cc(CN(CCc3cccnc3)Cc3scnc3C)ccc21` it is 118 to 120 °C. Next, `Cc1nnc(-c2ccc3occ(-c4cc(F)ccc4F)c3n2)o1`: 185 to 186 °C. `COC(=O)CC(=O)c1cc(F)c(F)c(F)c1F` yielded a melting point of 68 to 72 °C. Next, `CCOC(=O)c1c(N2CCN(C(=O)c3ccco3)CC2)c2cc(F)cnc2[nH]c1=O`: 207 °C. Next, `Cn1cc(C(=O)O)c(=O)c2c3ccc(F)c(N4CCC(O)(c5cccc(C(F)(F)F)c5)CC4)c3ncc21`: 245 °C. On to `N#Cc1ccc(OCCCOc2cccc(-c3cc4ccc(C#N)cc4o3)c2)cc1`, for which the melting point was 128 to 129 °C. The figure for `COC(=O)CCCCCCCCc1ccc(O)cc1` is 52 to 54 °C. Next, `COC(=O)CC1CCN(CCC=C(c2ccccc2)c2ccccc2)C1` (stereo not drawn): 95.5 to 97.5 °C.

On to `COC(C)c1cc(S(N)(=O)=S)sc1C` (stereo not drawn), for which the melting point lay in the range of 86 to 94 °C. Next, `CN1CCC(Nc2nc3ncnc(O)c3n2Cc2ccc(F)cc2)CC1`: 256 °C; `CCCc1nc2c(N)nc3cc(F)ccc3c2o1`: 184 to 187 °C.
